Data as given in EP1022028A1, “SUSTAINED-RELEASE ORAL PREPARATION” (Takeda Chemical Industries, Ltd., priority 1997, dated 1999).

How the values were obtained:
[1] = acute oral toxicity (LD50) in mice; conditions: mouse, in vivo, mice (NRM1)
Source text: (§1) The sustained-release oral preparation of the present invention is low in toxic potential and can be administered safely to mammals (e.g. cat, bovine, dog, horse, goat, monkey, human) requiring the treatment or prophylaxis of diabetes or inhibition of postprandial hyperglycemia. Particularly, the valiolamine derivative for use in the present invention, for example [2-hydroxy-1-(hydroxymethyl)ethyl]valiolamine (voglibose), is very high in safety rating with the acute oral toxicity (LD50) values in mice (NRM1) and rats (Wistar) being 14.7 ∼ 21.5 grams/kilogram body weight (mice) and about 20 grams/kilogram body weight (rats), respectively.

[2] = acute oral toxicity (LD50) in rats; conditions: rat, in vivo, rats (Wistar)
Source text: as §1

`OCC(CO)N[C@H]1C[C@](O)(CO)[C@@H](O)[C@H](O)[C@H]1O` [voglibose, 1L(1S)-(1(OH)2,3,5/1,3)-5-[[2-hydroxy-1-(hydroxymethyl)ethyl]amino]-1-C-(hydroxymethyl)-1,2,3,4-cyclohexanetetrol] showed an LD50 [1] of 14700 to 21500 mg/kg and an LD50 [2] of ~20000 mg/kg.
